# Assay results as given in ChEMBL document CHEMBL1201862, “PubChem BioAssay data set” (2004).
# Activity calls are given as the source filed them.
# Key:
# [1] = biological target: T1, Histone-lysine N-methyltransferase NSD2 (Homo sapiens, UniProt O96028); type: biochemical
# T1 sequence (O96028 whole entry): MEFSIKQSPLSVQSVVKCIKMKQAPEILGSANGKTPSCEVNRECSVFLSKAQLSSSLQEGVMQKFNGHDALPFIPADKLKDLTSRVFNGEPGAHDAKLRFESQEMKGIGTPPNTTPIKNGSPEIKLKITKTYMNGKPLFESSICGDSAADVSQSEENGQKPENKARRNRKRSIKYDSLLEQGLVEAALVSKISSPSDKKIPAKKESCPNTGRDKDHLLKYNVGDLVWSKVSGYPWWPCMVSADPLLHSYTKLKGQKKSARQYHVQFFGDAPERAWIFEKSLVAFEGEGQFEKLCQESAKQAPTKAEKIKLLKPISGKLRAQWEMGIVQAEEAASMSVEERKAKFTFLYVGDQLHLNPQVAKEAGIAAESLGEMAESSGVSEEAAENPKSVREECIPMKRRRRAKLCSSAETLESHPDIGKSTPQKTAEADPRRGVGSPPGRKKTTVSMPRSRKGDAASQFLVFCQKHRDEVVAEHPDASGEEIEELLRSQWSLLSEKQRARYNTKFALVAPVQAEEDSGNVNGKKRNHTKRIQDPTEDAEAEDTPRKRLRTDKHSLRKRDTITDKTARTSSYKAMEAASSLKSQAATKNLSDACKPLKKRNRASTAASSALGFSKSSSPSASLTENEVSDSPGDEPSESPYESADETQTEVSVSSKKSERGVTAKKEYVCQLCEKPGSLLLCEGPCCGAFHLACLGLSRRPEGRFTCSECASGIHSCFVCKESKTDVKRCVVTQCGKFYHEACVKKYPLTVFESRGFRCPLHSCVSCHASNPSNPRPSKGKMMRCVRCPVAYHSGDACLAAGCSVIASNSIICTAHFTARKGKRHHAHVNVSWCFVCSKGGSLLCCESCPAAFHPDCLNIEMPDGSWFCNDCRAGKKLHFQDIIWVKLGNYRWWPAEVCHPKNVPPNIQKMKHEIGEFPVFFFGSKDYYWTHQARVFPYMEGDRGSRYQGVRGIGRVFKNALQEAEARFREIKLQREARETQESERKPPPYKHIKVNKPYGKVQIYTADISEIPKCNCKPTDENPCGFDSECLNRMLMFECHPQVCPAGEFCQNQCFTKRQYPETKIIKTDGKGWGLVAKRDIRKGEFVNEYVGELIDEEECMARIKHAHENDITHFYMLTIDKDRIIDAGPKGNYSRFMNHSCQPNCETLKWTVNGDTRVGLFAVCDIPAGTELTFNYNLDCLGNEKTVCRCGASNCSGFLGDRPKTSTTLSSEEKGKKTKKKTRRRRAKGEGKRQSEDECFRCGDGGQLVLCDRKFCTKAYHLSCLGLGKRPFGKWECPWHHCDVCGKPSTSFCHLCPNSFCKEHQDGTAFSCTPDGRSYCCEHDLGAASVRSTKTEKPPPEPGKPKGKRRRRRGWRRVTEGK
# Cytochrome P450 3A4 [2] = biological target: T2, Cytochrome P450 3A4 (Homo sapiens, UniProt P08684); settings: Potency
# T2 sequence (P08684 whole entry, the tested form may be a part): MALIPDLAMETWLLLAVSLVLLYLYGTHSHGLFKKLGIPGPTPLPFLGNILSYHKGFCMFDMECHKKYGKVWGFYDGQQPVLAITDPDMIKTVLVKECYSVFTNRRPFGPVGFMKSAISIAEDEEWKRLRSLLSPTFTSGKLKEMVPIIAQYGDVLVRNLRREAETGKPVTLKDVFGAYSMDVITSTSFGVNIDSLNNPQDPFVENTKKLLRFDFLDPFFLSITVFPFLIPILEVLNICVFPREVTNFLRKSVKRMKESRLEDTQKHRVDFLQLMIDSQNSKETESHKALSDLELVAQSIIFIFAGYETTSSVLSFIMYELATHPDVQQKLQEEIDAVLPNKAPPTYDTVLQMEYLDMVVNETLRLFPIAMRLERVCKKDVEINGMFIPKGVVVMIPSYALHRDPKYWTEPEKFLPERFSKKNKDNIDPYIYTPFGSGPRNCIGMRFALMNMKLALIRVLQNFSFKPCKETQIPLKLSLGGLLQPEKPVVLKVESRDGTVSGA
# [3] = off-target signal loss in HeLa-CEM21 co-culture – HeLa F-luc CTL cells, cherry-picked, counter-screen for HIV-1 Env fusion inhibitor project, dose response (AID 652040); type: functional, cell-based;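 also: potency for signal decrease marking cytotoxic or nonspecific inhibition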
# [4] = ZM109 Env clade C HIV-1 fusion inhibitors, dose response, HeLa effector, CEM target cells, luciferase, cherry-pick (AID 652058); type: functional, cell-based
# [5] = inhibitors of HIV Env-driven cell fusion, dose response, cherry-pick (AID 652057); type: functional, cell-based
# [6] = inhibitors of clade B AD8 Env fusion, dose response, cell-based, cherry-pick (AID 652062); type: functional;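 also: luciferase signal from cell-cell fusion driven by HIV-1 clade B AD8 Env; potency is for inhibitors of fusion seen as a drop in luminescence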
# Kallikrein-7 = Kallikrein-7 (Homo sapiens, UniProt P49862); test: Fluorescence Intensity-based biochemical primary high throughput dose response assay to identify activators of kallikrein-7 (K7) zymogen.
# Kallikrein-7, sequence (P49862 whole entry): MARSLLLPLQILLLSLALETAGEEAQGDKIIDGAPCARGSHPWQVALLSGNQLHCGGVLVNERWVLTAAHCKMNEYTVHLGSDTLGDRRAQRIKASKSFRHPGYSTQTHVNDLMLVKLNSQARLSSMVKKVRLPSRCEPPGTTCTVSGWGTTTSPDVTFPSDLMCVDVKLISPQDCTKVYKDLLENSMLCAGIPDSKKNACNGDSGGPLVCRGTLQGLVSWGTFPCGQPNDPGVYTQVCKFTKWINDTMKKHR
# [7] = biological target: Eukaryotic translation initiation factor 4E (Mus musculus, UniProt P63073); test: eIF4E–eIF4G protein interaction inhibitors, dose response, biochemical, TR-FRET (AID 855); type: functional;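 also: potency for disrupting eIF4E binding to eIF4GI seen as loss of FRET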
# Eukaryotic translation initiation factor 4E, sequence (P63073 whole entry, the tested form may be a part): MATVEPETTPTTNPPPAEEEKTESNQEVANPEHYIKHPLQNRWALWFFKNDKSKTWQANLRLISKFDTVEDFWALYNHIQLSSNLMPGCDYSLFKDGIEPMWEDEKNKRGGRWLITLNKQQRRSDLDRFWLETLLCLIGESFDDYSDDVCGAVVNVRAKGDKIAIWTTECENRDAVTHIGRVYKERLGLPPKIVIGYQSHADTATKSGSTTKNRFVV
# [8] = biological target: T3, Carboxy-terminal domain RNA polymerase II polypeptide A small phosphatase 1 (Homo sapiens, UniProt Q9GZU7); test: inhibitors of CTDSP1, concentration-response testing, biochemical assay, absorbance-based, actives from ultra-high-throughput screening (AID 540297); type: functional
# T3 sequence (Q9GZU7 whole entry): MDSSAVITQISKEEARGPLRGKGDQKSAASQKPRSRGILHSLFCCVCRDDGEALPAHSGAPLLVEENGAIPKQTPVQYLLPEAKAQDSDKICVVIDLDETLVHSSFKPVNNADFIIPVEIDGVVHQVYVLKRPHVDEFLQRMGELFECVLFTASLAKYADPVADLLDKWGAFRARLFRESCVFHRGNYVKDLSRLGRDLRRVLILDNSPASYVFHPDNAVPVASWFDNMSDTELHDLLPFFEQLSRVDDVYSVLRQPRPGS
# Cytochrome P450 2D6 = Cytochrome P450 2D6 (Homo sapiens, UniProt P10635);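 also: CYP2D6 member of a cytochrome P450 panel assay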
# Cytochrome P450 2D6, sequence (P10635 whole entry): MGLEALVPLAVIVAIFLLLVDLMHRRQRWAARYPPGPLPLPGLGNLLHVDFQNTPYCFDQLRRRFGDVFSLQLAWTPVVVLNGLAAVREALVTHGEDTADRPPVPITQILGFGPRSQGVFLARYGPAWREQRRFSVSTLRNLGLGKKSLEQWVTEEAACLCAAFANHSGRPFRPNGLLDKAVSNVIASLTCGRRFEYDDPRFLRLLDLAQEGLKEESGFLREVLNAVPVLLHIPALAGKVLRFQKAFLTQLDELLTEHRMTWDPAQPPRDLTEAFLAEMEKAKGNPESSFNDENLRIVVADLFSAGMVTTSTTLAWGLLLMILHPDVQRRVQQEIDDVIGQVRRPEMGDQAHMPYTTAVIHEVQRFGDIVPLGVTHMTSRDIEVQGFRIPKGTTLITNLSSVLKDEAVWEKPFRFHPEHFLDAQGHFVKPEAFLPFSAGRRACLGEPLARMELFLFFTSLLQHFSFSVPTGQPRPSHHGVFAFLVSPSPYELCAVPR
# Cytochrome P450 2C19 = Cytochrome P450 2C19 (Homo sapiens, UniProt P33261); test: Cytochrome panel assay with activity outcomes. Panel member name: p450-cyp2c19 Compounds with AC50 equal or less than 10 uM are considered active; type: functional
# Cytochrome P450 2C19, sequence (P33261 whole entry): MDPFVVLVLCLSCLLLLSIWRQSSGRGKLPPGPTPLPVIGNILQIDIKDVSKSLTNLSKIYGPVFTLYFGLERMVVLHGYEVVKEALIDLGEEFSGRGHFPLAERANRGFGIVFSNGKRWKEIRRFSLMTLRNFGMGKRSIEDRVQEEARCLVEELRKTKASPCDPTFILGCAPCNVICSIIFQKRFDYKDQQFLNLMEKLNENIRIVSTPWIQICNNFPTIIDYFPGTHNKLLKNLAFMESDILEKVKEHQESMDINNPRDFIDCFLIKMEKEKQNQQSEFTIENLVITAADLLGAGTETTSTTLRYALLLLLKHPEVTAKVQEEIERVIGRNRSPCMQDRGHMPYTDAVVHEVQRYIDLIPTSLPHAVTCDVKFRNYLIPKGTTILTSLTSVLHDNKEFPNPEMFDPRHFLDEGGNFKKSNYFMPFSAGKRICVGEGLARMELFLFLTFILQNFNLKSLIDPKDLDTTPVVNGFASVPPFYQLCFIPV
# Cytochrome P450 2C9 [9] = biological target: T4, Cytochrome P450 2C9 (Homo sapiens, UniProt P11712)
# T4 sequence (P11712 whole entry): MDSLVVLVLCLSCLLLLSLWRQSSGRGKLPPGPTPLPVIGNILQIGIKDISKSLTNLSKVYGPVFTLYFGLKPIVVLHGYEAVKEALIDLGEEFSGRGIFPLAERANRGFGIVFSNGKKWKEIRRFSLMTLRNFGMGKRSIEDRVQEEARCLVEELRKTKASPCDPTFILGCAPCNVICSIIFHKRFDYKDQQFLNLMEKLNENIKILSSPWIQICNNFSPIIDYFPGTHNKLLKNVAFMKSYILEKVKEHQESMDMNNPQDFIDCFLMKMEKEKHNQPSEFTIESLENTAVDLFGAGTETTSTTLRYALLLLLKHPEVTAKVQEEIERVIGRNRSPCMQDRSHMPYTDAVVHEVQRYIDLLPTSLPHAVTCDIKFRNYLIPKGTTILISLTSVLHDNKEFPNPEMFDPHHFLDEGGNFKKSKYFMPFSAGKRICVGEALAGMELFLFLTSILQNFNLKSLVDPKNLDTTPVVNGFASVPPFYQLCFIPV
# [10] = A cytotoxicity screen of small molecule inhibitors of the PhoP region in Salmonella typhi identified in the primary screen. [Related pubchem assays: 1850, 1864, 1985 ]; type: functional
# [11] = biological target: T5, Short transient receptor potential channel 4 (Mus musculus, UniProt Q9QUQ5); test: mouse TRPC4 channel activators, dose response, cell-based, HEK293 TRPC4/mu-opioid, Fluo-4 calcium (AID 434937); type: functional
# T5 sequence (Q9QUQ5 whole entry): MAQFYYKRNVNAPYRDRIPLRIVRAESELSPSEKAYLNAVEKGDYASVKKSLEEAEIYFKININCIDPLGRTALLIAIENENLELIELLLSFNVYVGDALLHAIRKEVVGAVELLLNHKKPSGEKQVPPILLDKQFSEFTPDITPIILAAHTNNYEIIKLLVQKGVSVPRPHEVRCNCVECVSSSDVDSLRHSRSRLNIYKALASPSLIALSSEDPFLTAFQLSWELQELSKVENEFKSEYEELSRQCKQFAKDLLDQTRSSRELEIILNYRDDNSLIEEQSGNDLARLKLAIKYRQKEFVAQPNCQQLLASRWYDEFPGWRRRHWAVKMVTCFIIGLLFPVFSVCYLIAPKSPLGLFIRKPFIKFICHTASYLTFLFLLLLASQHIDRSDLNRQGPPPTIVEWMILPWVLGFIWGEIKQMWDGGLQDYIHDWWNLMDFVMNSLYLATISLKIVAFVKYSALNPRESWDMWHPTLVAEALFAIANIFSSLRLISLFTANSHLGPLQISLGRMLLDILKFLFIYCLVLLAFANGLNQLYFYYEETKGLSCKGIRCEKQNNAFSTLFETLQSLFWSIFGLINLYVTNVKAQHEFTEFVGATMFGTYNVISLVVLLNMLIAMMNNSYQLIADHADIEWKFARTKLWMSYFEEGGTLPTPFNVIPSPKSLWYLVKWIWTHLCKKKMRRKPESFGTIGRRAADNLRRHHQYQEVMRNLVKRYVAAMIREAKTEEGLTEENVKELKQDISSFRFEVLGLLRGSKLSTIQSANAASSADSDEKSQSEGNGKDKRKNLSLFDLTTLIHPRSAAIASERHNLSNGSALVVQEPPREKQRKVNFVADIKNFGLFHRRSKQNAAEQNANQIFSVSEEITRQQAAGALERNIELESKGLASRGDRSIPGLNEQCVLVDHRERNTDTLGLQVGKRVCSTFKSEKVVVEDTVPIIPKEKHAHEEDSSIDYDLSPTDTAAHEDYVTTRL
# cells [12] = type: functional, cell-based
# cells [13] = type: functional, cell-based; remark: listed apart in the source
# Cytochrome P450 2C9 [14] = biological target: T4, Cytochrome P450 2C9; remark: listed apart in the source
# Cytochrome P450 3A4 [15] = biological target: T2, Cytochrome P450 3A4
# [16] = biological target: T5, Short transient receptor potential channel 4; test: mouse TRPC4 channel inhibitors, dose response, cell-based, HEK293 TRPC4/mu-opioid, Fluo-4 calcium (AID 434942); type: functional;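 also: potency of inhibitors blocking the TRPC4 calcium response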
structure (smiles),measurement,setting,value
Cc1cc2ccccn2c1C(=S)NC(=O)c1ccccc1,AC50,[1],> 20 µM (inactive)
C=CCN=C=S [ALLYL ISOTHIOCYANATE],AC50,Cytochrome P450 3A4 [2],39.8 µM (inconclusive)
CCNc1cc(O)ccc1C,AC50,Cytochrome P450 3A4 [2],25.1 µM (inconclusive)
CCOc1ccc(OCc2cccc(C(=O)N3CCOCC3)c2)cc1,AC50,[3],5.29 µM (active)
same,AC50,[4],22 µM (active)
same,AC50,[5],2.64 µM (active)
same,AC50,[6],7.58 µM (active)
O=C(NC1CCC(O)CC1)c1cc(-c2ccco2)nc2ccccc12 (stereo not drawn),EC50,Kallikrein-7,> 69.5 µM (inactive)
same,IC50,[7],50 µM (inactive)
same,IC50,[8],5.9 µM (active)
COc1cc(C(=O)NNC(=O)C2CC=CCC2C(=O)O)cc(OC)c1OC (stereo not drawn),IC50,[7],> 64 µM (inactive)
O=C(O)CSSCC(=O)O,AC50,Cytochrome P450 2D6,inconclusive
same,AC50,Cytochrome P450 2C19,inconclusive
COC(=O)CNC(=O)COC(=O)c1cc(Cl)cc(Cl)c1N,EC50,Kallikrein-7,> 69.5 µM (inactive)
C[C@@H](NCc1cc(Br)cc2[nH]c(=O)c(=O)[nH]c12)P(=O)(O)O,AC50,Cytochrome P450 2C9 [9],inconclusive
COc1cccc(-c2noc(C3CCCN(S(=O)(=O)c4cccc(Cl)c4C)C3)n2)c1 (stereo not drawn),AC50,[3],16.5 µM (active)
same,AC50,[4],10.9 µM (active)
same,AC50,[5],6.22 µM (active)
same,AC50,[6],11.9 µM (active)
Cc1noc(C)c1-c1cc(N2CCN(C)CC2)ncn1,AC50,Cytochrome P450 2C9 [9],inconclusive
O=C(CSc1ncn(-c2ccccc2)n1)N1CCc2ccccc21,IC50,[7],> 64 µM (inactive)
CCCCOc1ccc(OCCNC(=O)c2ccco2)cc1,EC50,[10],> 50 µM (active)
Cc1cc2ccccc2c(=O)n1CC(=O)NCCC1=CCCCC1,EC50,[10],> 50 µM (active)
O=C(Nc1ccc2c(c1)OCCO2)C1CCN(C(=O)c2ccccc2)CC1,AC50,Cytochrome P450 2D6,inconclusive
COc1cc(C(=O)N2CCN(c3ncnc4sc(C)c(C)c34)CC2)cc(OC)c1OC,AC50,[3],24.4 µM (active)
same,AC50,[4],6.73 µM (active)
same,AC50,[5],33.7 µM (active)
same,AC50,[6],8.4 µM (active)
O=C(Cn1cnc2ccccc21)Nc1ccc(SC(F)F)cc1,EC50,[10],> 50 µM (active)
CC(COc1ccccc1)N1CCC(CO)(CCc2ccccc2)CC1 (stereo not drawn),EC50,[11],0.267 µM (active)
COc1cc(/C=N/CC2OCCc3ccccc32)cc(OC)c1 (stereo not drawn),EC50,cells [12],> 29.9 µM (inactive)
same,IC50,cells [13],> 29.9 µM (inactive)
COc1ccc(-c2nc(NC(=O)c3ccccc3)sc2-c2ccc([N+](=O)[O-])cc2)cc1,AC50,Cytochrome P450 2D6,inconclusive
same,AC50,Cytochrome P450 2C19; read-out: AC50,1.26 µM (inconclusive)
same,AC50,Cytochrome P450 2C9 [14],2.82 µM (inconclusive)
COCCNc1ncncc1-c1c(C)noc1C,AC50,Cytochrome P450 2C9 [9],inconclusive
CC(=O)Oc1c2c(c3c(c1CC=C(C)C)O[C@@]14C(=CC5CC1C(C)(C)OC4(C/C=C(\C)C(=O)O)C5=O)C3=O)OC(C)(CCC=C(C)C)C=C2 (stereo partly drawn),AC50,Cytochrome P450 3A4 [2],39.8 µM (inconclusive)
O=C(CCCc1ccccc1)NCCc1cnc[nH]1,EC50,[11],5.31 µM (active)
CCN(CC)CCn1c(-c2ccccc2)nc2c(NCCOC)nc(C)nc21,AC50,Cytochrome P450 3A4 [2],12.6 µM (inconclusive)
COCC(=O)Oc1c(Sc2ccccc2[N+](=O)[O-])c(C)nn1C(C)(C)C,IC50,[7],50 µM (inactive)
CSc1ccc(Cl)c(C(=O)NCCOc2cc(C)ccc2C(C)C)c1,AC50,Cytochrome P450 2C9 [9],inconclusive
same,AC50,Cytochrome P450 3A4 [15],1 µM (inconclusive)
CCc1nnc(NC(=O)Cn2nc(-c3ccccc3OC)ccc2=O)s1,IC50,[7],> 64 µM (inactive)
CC(=O)OC1CC2C(C)(C)C(O)C=C[C@@]2(C)C2CC[C@]3(C)C(=CC(=O)OC3c3ccoc3)[C@]12C (stereo partly drawn),AC50,Cytochrome P450 3A4 [2],15.8 µM (inconclusive)
Nc1nc2ncccn2c1-c1ccc(F)c(F)c1,EC50,Kallikrein-7,9.39 µM (active)
O=C(C[n+]1ccccc1)c1ccc(-c2ccccc2)cc1,EC50,[10],> 50 µM (active)
C[C@@H]1CNC(=O)c2c(C(=O)N3CCN(c4ccccc4)CC3)ncn21,AC50,[3],10.4 µM (active)
same,AC50,[4],14.8 µM (active)
same,AC50,[5],7.81 µM (active)
same,AC50,[6],19.7 µM (active)
COc1ccc(Cl)cc1NC(=O)CNCC(c1ccccc1)N(C)C (stereo not drawn),EC50,[16],0.421 µM (active)
same,EC50,[11],1.06 µM (active)
COc1ccc(/C=C/C(O)=C2/C(=O)NC3(C)CC2c2ccccc2O3)c(OC)c1OC (stereo not drawn),EC50,Kallikrein-7,> 69.6 µM (inactive)
